# Assay results reported in patent US20210009583A1, “DEUTERATED IMIDAZOPYRIDINES” (UNIVERSITY OF NOTRE DAME DU LAC, priority 2018, published 2021).
# Values joined by “and” are separate entries in the source; they are usually repeats but may differ in a detail not shown here. Equal entries are not always repeated. “Also recorded” adds a separate entry of the source. Where two headings read alike, the source gives them in different places.
# Columns and labels:
# [1] = Single dose pharmacokinetic study after oral administration, with and without ABT pre-dosing; type: in vivo, female Balb/c mice
# Procedure: Based on MIC and acute toxicity data, two compounds ND-011176 and a deuterated analog ND-012101 were selected for evaluation in a single dose pharmacokinetic study (with and without pre-dosing of 1-Aminobenzotriazole, ABT) after oral administration to female Balb/c mice.
# All animals were administered with the prepared test article via oral gavage at a target dose level of 200 mg/kg and at the dose volume detailed in the table 1 below. Each animal in Groups 2, 4, 6, 8 and 10 received a dose of ABT (100 mg/kg) via oral gavage two hours prior to Test Article administration.
# Whole blood samples (0.1 mL each) were collected at the first time point via submandibular vein (SMV), or an appropriate peripheral vein if it was necessary. Up to 0.5 mL of whole blood was collected at terminal blood collection via intra cardiac puncture (ICP). For animals 1-3 from each of the 10 Groups, blood samples were collected at 0.5 and 4 hours after oral dosing. […]
# The plasma samples and dose formulation samples were analyzed by the Testing Facility to determine the concentration of the test article using LC-MS/MS. PK parameters were estimated from the plasma concentration-time data by standard non-compartmental methods utilizing suitable analysis software.
# M. tuberculosis = assay: Chronic Balb/c mouse model of M. tuberculosis infection; type: in vivo; details: for CFU drop (bacteriostatic activity) / Mouse survival: 4 weeks of oral dosing; for Spleen, gross necropsy observation: after 4 weeks of treatment, individual mice; for Lung Log10 CFU ± SEM / Spleen Log10 CFU ± SEM / Log reduction vs CTL (Lg) / Log reduction vs CTL (Sp): 4 Week Treatment; for Log reduction vs CTL (Lg): lung; for Log reduction vs CTL (Sp): spleen
# [2] = Body weight at gross necropsy after 4 weeks of treatment (chronic model); type: in vivo, Balb/c mouse; details: individual mice
# Procedure: When evaluated in the “Chronic Balb/c mouse model” of M. tuberculosis infection by the method of Lenaerts, A. J., et. al. 2005. Preclinical testing of the nitroimidazopyran PA-824 for activity against M. tuberculosis in a series of in vitro and in vivo models. AAC. 49(6):2294-301. ND-012101 at 200 mg/kg and ND-012101(100 mg/kg)+ABT (100 mg/kg) both achieved 100% mouse survival after 4 weeks of oral dosing.
# [3] = 5 h (mean of the "8" and "12" TP samples taken before euthanasia), PO 200 mg/kg + 100 mg/kg ABT
# [4] = female, Balb/c, mouse, in vivo, po, 200 mg/kg
# [5] = mouse, in vivo, female Balb/c mice, single oral dose 200 mg/kg, no ABT
smiles,measurement,setting,value
[2H]c1c(C([2H])([2H])[2H])c([2H])n2c(C(=O)NCc3ccc(C(F)(F)F)cc3)c(C)nc2c1[2H] [ND-012101],"Drug plasma concentration, individual mice","[1]; 0.5 h, PO 200 mg/kg + 100 mg/kg ABT",22700 ng/mL and 19100 ng/mL
same,"Drug plasma concentration, individual mice","[1]; 0.5 h, PO 200 mg/kg, no ABT, 200 mg/kg",23100 ng/mL and 19900 ng/mL
same,"Drug plasma concentration, individual mice","[1]; 2 h, PO 200 mg/kg + 100 mg/kg ABT",37700 ng/mL and 35500 ng/mL
same,"Drug plasma concentration, individual mice","[1]; 2 h, PO 200 mg/kg, no ABT, 200 mg/kg",7900 ng/mL and 3080 ng/mL and 4590 ng/mL
same,"Drug plasma concentration, individual mice","[1]; 4 h, PO 200 mg/kg + 100 mg/kg ABT",47200 ng/mL and 35000 ng/mL
same,"Drug plasma concentration, individual mice","[1]; 4 h, PO 200 mg/kg, no ABT, 200 mg/kg",1350 ng/mL and 3490 ng/mL and 966 ng/mL
same,"Drug plasma concentration, Average",[1]; [3],50017^^ ng/mL
same,"Drug plasma concentration, individual mice",[1]; [3],49100^^ ng/mL and 47600^^ ng/mL and 53350^^ ng/mL
same,"Drug plasma concentration, individual mice","[1]; 8 h, PO 200 mg/kg, no ABT, 200 mg/kg",67.6 ng/mL and 22.3 ng/mL and 100 ng/mL
same,"Drug plasma concentration, individual mice","[1]; 12 h, PO 200 mg/kg, no ABT, 200 mg/kg",2.10 ng/mL and 1.19 ng/mL
same,"Drug plasma concentration, individual mice","[1]; 24 h, PO 200 mg/kg, no ABT",BQL
same,% AUC Extrap,"[1]; female Balb/c mice, single oral dose 200 mg/kg, no ABT",0.00%
same,concentration at 0.5 h,"[1]; female, Balb/c, mouse, in vivo, 0.5 h, PO 200 mg/kg + 100 mg/kg ABT, read-out: Drug plasma concentration, Average",21700 ng/mL
same,concentration at 0.5 h,"[1]; female, Balb/c, mouse, in vivo, 0.5 h, PO 200 mg/kg + 100 mg/kg ABT, read-out: Drug plasma concentration, individual mice",23300 ng/mL
same,concentration at 2 h,"[1]; female, Balb/c, mouse, in vivo, 2 h, PO 200 mg/kg + 100 mg/kg ABT, read-out: Drug plasma concentration, Average",34300 ng/mL
same,concentration at 2 h,"[1]; female, Balb/c, mouse, in vivo, 2 h, PO 200 mg/kg + 100 mg/kg ABT, read-out: Drug plasma concentration, individual mice",29800 ng/mL
same,concentration at 4 h,"[1]; female, Balb/c, mouse, in vivo, 4 h, PO 200 mg/kg + 100 mg/kg ABT, read-out: Drug plasma concentration, Average",43500 ng/mL
same,concentration at 4 h,"[1]; female, Balb/c, mouse, in vivo, 4 h, PO 200 mg/kg + 100 mg/kg ABT, read-out: Drug plasma concentration, individual mice",48200 ng/mL
same,AUC(0-x)/Dose,[1]; [4],125 ng·h/mL/mg/kg
same,AUC(0-∞)/Dose,[1]; [4],125 ng·h/mL/mg/kg
same,Cmax/Dose,[1]; [4],96 ng/mL/mg/kg
same,concentration at 0.5 h,"[1]; female, Balb/c, mouse, in vivo, po, 200 mg/kg, 0.5 h, PO 200 mg/kg, no ABT, read-out: Drug plasma concentration, Average",19200 ng/mL
same,concentration at 0.5 h,"[1]; female, Balb/c, mouse, in vivo, po, 200 mg/kg, 0.5 h, PO 200 mg/kg, no ABT, read-out: Drug plasma concentration, individual mice",14700 ng/mL
same,concentration at 2 h,"[1]; female, Balb/c, mouse, in vivo, po, 200 mg/kg, 2 h, PO 200 mg/kg, no ABT, read-out: Drug plasma concentration, Average",5190 ng/mL
same,concentration at 4 h,"[1]; female, Balb/c, mouse, in vivo, po, 200 mg/kg, 4 h, PO 200 mg/kg, no ABT, read-out: Drug plasma concentration, Average",1940 ng/mL
same,concentration at 8 h,"[1]; female, Balb/c, mouse, in vivo, po, 200 mg/kg, 8 h, PO 200 mg/kg, no ABT, read-out: Drug plasma concentration, Average",63 ng/mL
same,concentration at 12 h,"[1]; female, Balb/c, mouse, in vivo, po, 200 mg/kg, 12 h, PO 200 mg/kg, no ABT, read-out: Drug plasma concentration, Average",2 ng/mL
same,concentration at 12 h,"[1]; female, Balb/c, mouse, in vivo, po, 200 mg/kg, 12 h, PO 200 mg/kg, no ABT, read-out: Drug plasma concentration, individual mice",2 ng/mL
same,Cmax,"[1]; mouse, in vivo, female Balb/c mice, single oral dose 200 mg/kg, ABT 100 mg/kg PO 2 h before, manually added from the TA concentration data",48400 ng/mL
same,AUC(0-inf),[1]; [5],25000 ng·h/mL
same,Cmax,[1]; [5],19200 ng/mL
same,Tmax,[1]; [5],60 min
same,half-life,[1]; [5],47.4 min
same,AUC,"[1]; mouse, in vivo, female Balb/c mice, single oral dose 200 mg/kg, no ABT, read-out: AUC(0-x)",25000 ng·h/mL
same,CFU drop (bacteriostatic activity),M. tuberculosis; 100 mg/kg + ABT 100 mg/kg,< 1 log CFU
same,Mouse survival,M. tuberculosis; 100 mg/kg + ABT 100 mg/kg,100%
same,CFU drop (bacteriostatic activity),M. tuberculosis; 200 mg/kg,< 1 log CFU
same,Mouse survival,M. tuberculosis; 200 mg/kg,100%
same,"Spleen, gross necropsy observation","M. tuberculosis; Group 3, ND-012101 + ABT",Slightly enlarged
same,"Spleen, gross necropsy observation","M. tuberculosis; Group 6, ND-012101 alone",Slightly enlarged; also recorded: normal
same,Lung Log10 CFU ± SEM,M. tuberculosis; ND-012101 (100) + ABT (100),5.62 ± 0.06 Log10 CFU
same,Spleen Log10 CFU ± SEM,M. tuberculosis; ND-012101 (100) + ABT (100),4.80 ± 0.14 Log10 CFU
same,Lung Log10 CFU ± SEM,M. tuberculosis; ND-012101 (200),5.93 ± 0.08 Log10 CFU
same,Spleen Log10 CFU ± SEM,M. tuberculosis; ND-012101 (200),5.02 ± 0.08 Log10 CFU
same,Log reduction vs CTL (Lg),M. tuberculosis; ND-012101 (100) + ABT (100),0.17
same,Log reduction vs CTL (Lg),M. tuberculosis; ND-012101 (200),−0.14
same,Log reduction vs CTL (Sp),M. tuberculosis; ND-012101 (100) + ABT (100),0.20
same,Log reduction vs CTL (Sp),M. tuberculosis; ND-012101 (200),−0.02
same,Weight,"[2]; Group 3, ND-012101 + ABT",20.4 (2×) and 20.8 and 20.0 and 20.5 and 18.6
same,Weight,"[2]; Group 6, ND-012101 alone",21.5 (2×) and 20.7 and 20.3 and 19.9 and 20.8
